Results: patent publication US4439426A, “Semisynthetic macrolidic antibiotics, intermediate compounds for their preparation and related pharmaceutical compositions containing them” (priority 1981, dated 1984)
In brackets after ≈: the same amount, converted by molar mass.

Assays:
Assay type in all cases: cell-based
[1] = system: Acholeplasma laidlawii ATCC 23206 LRP 204; experiment: Bacteriostatic power in solid medium (MIC); settings: Acholeplasma laidlawii, ATCC23206; solid medium; read-out: Minimum inhibiting concentration
Text: (§1) the bacteriostatic power, expressed as the minimum inhibiting concentration (MIC) against both aerobic and anaerobic, Gram positive and Gram negative, bacterial stocks: the related results are reported in the tables 2 and 3.

Bacillus subtilis LRP 25 = experiment: Bacteriostatic power in solid medium (MIC); settings: Bacillus subtilis, LRP25; solid medium; read-out: Minimum inhibiting concentration
Text: as §1

[2] = system: Bacteroides fragilis ATCC 23745 LRP 205; experiment: Bacteriostatic power in solid medium (MIC); settings: Bacteroides fragilis, ATCC23745; solid medium; anaerobic; read-out: Minimum inhibiting concentration
Text: as §1

[3] = system: Corynebacterium diphteriae LRP 24; experiment: Bacteriostatic power in solid medium (MIC); settings: Corynebacterium, LRP24; solid medium; read-out: Minimum inhibiting concentration
Text: as §1

Escherichia coli LRP 50 = experiment: Bacteriostatic power in solid medium (MIC); settings: Escherichia coli, LRP50; solid medium; read-out: Minimum inhibiting concentration
Text: as §1

[4] = system: Fusobacteriumnecrophroum ATCC 27852 LRP 210; experiment: Bacteriostatic power in solid medium (MIC); settings: solid medium; anaerobic; read-out: Minimum inhibiting concentration
Text: as §1

[5] = system: Haemophilus influenzae ATCC 19418 LRP 213; experiment: Bacteriostatic power in solid medium (MIC); settings: Haemophilus influenzae, ATCC19418, read-out: Minimum inhibiting concentration
Text: as §1

[6] = system: Klelsiella pneumoniae LRP 54; experiment: Bacteriostatic power in solid medium (MIC); settings: solid medium; read-out: Minimum inhibiting concentration
Text: as §1

[7] = system: Micrococcus luteus ATCC 15957 LRP 193; experiment: Bacteriostatic power in solid medium (MIC); settings: Micrococcus luteus, ATCC15957; solid medium; Erythromycin resistant; read-out: Minimum inhibiting concentration
Text: as §1

[8] = system: Micrococcus luteus ATCC 9341 LRP 6; experiment: Bacteriostatic power in solid medium (MIC); settings: Micrococcus luteus, ATCC9341; solid medium; read-out: Minimum inhibiting concentration
Text: as §1

[9] = system: Mycoplasma hominis I ATCC 14027 LRP 211; experiment: Bacteriostatic power in solid medium (MIC); settings: Metamycoplasma hominis, ATCC14027; solid medium; read-out: Minimum inhibiting concentration
Text: as §1

[10] = system: Neisseria gonorrhoeae ATCC 19424 LRP 214; experiment: Bacteriostatic power in solid medium (MIC); settings: Neisseria gonorrhoeae, ATCC19424; solid medium; read-out: Minimum inhibiting concentration
Text: as §1

[11] = system: Proteus vulgaris ATCC 6380 LRP 13; experiment: Bacteriostatic power in solid medium (MIC); settings: Proteus vulgaris, ATCC6380; solid medium; read-out: Minimum inhibiting concentration
Text: as §1

[12] = system: Pseudomonas aeruginosa LRP 9; experiment: Bacteriostatic power in solid medium (MIC); settings: Pseudomonas aeruginosa, LRP9; solid medium; read-out: Minimum inhibiting concentration
Text: as §1

Shigella sonnei LRP 5 = experiment: Bacteriostatic power in solid medium (MIC); settings: LRP5, read-out: Minimum inhibiting concentration
Text: as §1

[13] = system: Staphylococcus aureus ATCC 14154 LRP 78; experiment: Bacteriostatic power in solid medium (MIC); settings: Staphylococcus aureus, ATCC14154, read-out: Minimum inhibiting concentration
Text: as §1

[14] = system: Staphylococcus aureus ATCC 6538P LRP 14; experiment: Bacteriostatic power in solid medium (MIC); settings: Staphylococcus aureus, ATCC6538P; solid medium; Penycilline resistant; read-out: Minimum inhibiting concentration
Text: as §1

[15] = system: Staphylococcus aureus ATCC 6538P LRP 39; experiment: Bacteriostatic power in solid medium (MIC); settings: Staphylococcus aureus, ATCC6538P; solid medium; read-out: Minimum inhibiting concentration
Text: as §1

[16] = system: Streptococcus faecalis LRP 7; experiment: Bacteriostatic power in solid medium (MIC); settings: Enterococcus faecalis, LRP7; solid medium; read-out: Minimum inhibiting concentration
Text: as §1

[17] = system: Streptococcus faecalis subsp. zymogenes ATCC 12958 LRP 61; experiment: Bacteriostatic power in solid medium (MIC); settings: Enterococcus faecalis, ATCC12958; solid medium; read-out: Minimum inhibiting concentration
Text: as §1

[18] = system: Streptococcus pneumoniae ATCC 6303 LRP 35; experiment: Bacteriostatic power in solid medium (MIC); settings: Streptococcus pneumoniae, ATCC6303; solid medium; read-out: Minimum inhibiting concentration
Text: as §1

[19] = system: Streptococcus pneumoniae ATCC 6303 LRP 52; experiment: Bacteriostatic power in solid medium (MIC); settings: Streptococcus pneumoniae, ATCC6303; solid medium; read-out: Minimum inhibiting concentration
Text: as §1

[20] = system: Streptococcus pneumoniae ATCC 6303 LRP 53; experiment: Bacteriostatic power in solid medium (MIC); settings: Streptococcus pneumoniae, ATCC6303; solid medium; read-out: Minimum inhibiting concentration
Text: as §1

[21] = system: Streptococcus pyogenes ATCC 8668 LRP 197; experiment: Bacteriostatic power in solid medium (MIC); settings: Streptococcus pyogenes, ATCC8668; solid medium; read-out: Minimum inhibiting concentration
Text: as §1

[22] = system: Streptococcus pyogenes ATCC 8668 LRP 34; experiment: Bacteriostatic power in solid medium (MIC); settings: Streptococcus pyogenes, ATCC8668; solid medium; read-out: Minimum inhibiting concentration
Text: as §1

[23] = system: Clostridium perfrigens ATCC 3624 LRP 206; experiment: microbe, parasite or virus in culture; settings: ATCC3624, solid medium, anaerobic, read-out: Minimum inhibiting concentration
Text: as §1

Salmonella typhy LRP 8 = experiment: microbe, parasite or virus in culture; settings: LRP8, solid medium, read-out: Minimum inhibiting concentration
Text: as §1

[24] = system: Corynebacterium diphteriae LRP 24; experiment: Bacteriostatic power in liquid medium (MIC); settings: Corynebacterium, LRP24; liquid medium; read-out: Minimum inhibiting concentration
Text: as §1

[25] = system: Staphylococcus aureus ATCC 6538 P LRP 39; experiment: Bacteriostatic power in liquid medium (MIC); settings: Staphylococcus aureus, ATCC6538; liquid medium; read-out: Minimum inhibiting concentration
Text: as §1

[26] = system: Streptococcus faecalis subs. zymogenes ATCC 12958 LRP 61; experiment: Bacteriostatic power in liquid medium (MIC); settings: Enterococcus faecalis, ATCC12958; liquid medium; read-out: Minimum inhibiting concentration
Text: as §1

[27] = system: Streptococcus pneumoniae ATCC 6303 LRP 35; experiment: Bacteriostatic power in liquid medium (MIC); settings: Streptococcus pneumoniae, ATCC6303; liquid medium; read-out: Minimum inhibiting concentration
Text: as §1

[28] = system: Streptococcus pyogenes ATCC 8668 LRP 34; experiment: Bacteriostatic power in liquid medium (MIC); settings: Streptococcus pyogenes, ATCC8668; liquid medium; read-out: Minimum inhibiting concentration
Text: as §1

[29] = system: Corynebacterium diphteriae LRP 24; experiment: Minimum bactericidal concentration (MBC)
Text: (§2) the bacterial power, expressed as the minimum bactericidal power (MBC) against some Gram positive aerobic stocks (table 5).

[30] = system: Staphylococcus aureus ATCC 6538 P LRP 39; experiment: Minimum bactericidal concentration (MBC)
Text: as §2

[31] = system: Streptococcus faecalis subs. zymogenes LRP 61; experiment: Minimum bactericidal concentration (MBC)
Text: as §2

[32] = system: Streptococcus pneumoniae ATCC 6303 LRP 35; experiment: Minimum bactericidal concentration (MBC)
Text: as §2

[33] = system: Streptococcus pyogenes ATCC 8668 LRP 34; experiment: Minimum bactericidal concentration (MBC)
Text: as §2

CC[C@H]1OC(=O)[C@H](C)[C@@H](O[C@H]2C[C@@](C)(OC)[C@@H](O)[C@H](C)O2)[C@H](C)[C@@H](O[C@@H]2O[C@H](C)C[C@H](N(C)C)[C@H]2O)[C@](C)(O)C[C@@H](C)C(=O)[C@H](C)[C@@H](O)[C@H]1C [Erythromycin B, reference compound]
MIC [1]: 0.097 µg/mL (≈ 0.135 µM)
MIC (Bacillus subtilis LRP 25): 0.049 µg/mL (≈ 0.0683 µM)
MIC [2]: 0.195 µg/mL (≈ 0.272 µM)
MIC [3]: 0.012 µg/mL (≈ 0.0167 µM)
MIC (Escherichia coli LRP 50): 25 µg/mL (≈ 34.8 µM)
MIC [4]: 6.25 µg/mL (≈ 8.71 µM)
MIC [5]: 6.25 µg/mL (≈ 8.71 µM)
MIC [6]: 25 µg/mL (≈ 34.8 µM)
MIC [7]: 25 µg/mL (≈ 34.8 µM)
MIC [8]: 0.006 µg/mL (≈ 0.00836 µM)
MIC [9]: 25 µg/mL (≈ 34.8 µM)
MIC [10]: 0.097 µg/mL (≈ 0.135 µM)
MIC [11]: 25 µg/mL (≈ 34.8 µM)
MIC [12]: 25 µg/mL (≈ 34.8 µM)
MIC (Shigella sonnei LRP 5): 25 µg/mL (≈ 34.8 µM)
MIC [13]: 25 µg/mL (≈ 34.8 µM)
MIC [14]: 0.195 µg/mL (≈ 0.272 µM)
MIC [15]: 0.097 µg/mL (≈ 0.135 µM)
MIC [16]: 0.195 µg/mL (≈ 0.272 µM)
MIC [17]: 0.195 µg/mL (≈ 0.272 µM)
MIC [18]: 0.024 µg/mL (≈ 0.0334 µM)
MIC [19]: 0.024 µg/mL (≈ 0.0334 µM)
MIC [20]: 0.024 µg/mL (≈ 0.0334 µM)
MIC [21]: 0.024 µg/mL (≈ 0.0334 µM)
MIC [22]: 0.024 µg/mL (≈ 0.0334 µM)
MIC [23]: 1.56 µg/mL (≈ 2.17 µM)
MIC (Salmonella typhy LRP 8): 25 µg/mL (≈ 34.8 µM)
MIC [24]: 0.012 µg/mL (≈ 0.0167 µM)
MIC [25]: 0.195 µg/mL (≈ 0.272 µM)
MIC [26]: 0.39 µg/mL (≈ 0.543 µM)
MIC [27]: 0.049 µg/mL (≈ 0.0683 µM)
MIC [28]: 0.024 µg/mL (≈ 0.0334 µM)
MBC/MIC [29]: 16
MBC ([29]; Corynebacterium, LRP24, read-out: Minimum bactericidal concentration (MBC)): 0.195 µg/mL (≈ 0.272 µM)
MBC/MIC [30]: 32
MBC ([30]; Staphylococcus aureus, ATCC6538, read-out: Minimum bactericidal concentration (MBC)): 6.25 µg/mL (≈ 8.71 µM)
MBC/MIC [31]: 16
MBC ([31]; Enterococcus faecalis, read-out: Minimum bactericidal concentration (MBC)): 6.25 µg/mL (≈ 8.71 µM)
MBC/MIC [32]: 4
MBC ([32]; Streptococcus pneumoniae, ATCC6303, read-out: Minimum bactericidal concentration (MBC)): 0.195 µg/mL (≈ 0.272 µM)
MBC/MIC [33]: 8
MBC ([33]; Streptococcus pyogenes, ATCC8668, read-out: Minimum bactericidal concentration (MBC)): 0.195 µg/mL (≈ 0.272 µM)
